By IC50 is commonly meant the midpoint of a concentration-inhibition curve.

Results on 18 compounds are retold here after ChEMBL document CHEMBL5241084, “Non-carbohydrate strategies to inhibit lectin proteins with special emphasis on galectins” (Eur J Med Chem, 2021).

Starred links: 1 amine or outer side, 2 acyl side, 3 side chain; linkers in the order of their positions; H or OH if unused. Non-standard residues stand in square brackets, D forms with d. Residues, ends and D or L forms follow the SMILES beside them. X2 = O=C(CCc1cccc2c1Cc1c(CCN[*:1])cccc1-2)[*:2]; X3 = O=C(CCc1cccc2c1oc1c(CCN[*:1])cccc12)[*:2]; Nva = CCC[C@H](N)C(=O)O

Assay [1] has as its target C-type lectin domain family 4 member K (Homo sapiens, UniProt Q9UJ71). Briefly: Inhibition of human Langerin overexpressed in human Raji cells incubated for 30 mins by flow cytometry. It counts as cell-based. (Flow cytometry measures light scatter and fluorescence of single cells or particles in a stream.)
In assay [2] the target is T1, Galectin-1 (Homo sapiens, UniProt P09382). Briefly: Binding affinity to Gal-1 (unknown origin) by fluorescence spectroscopy.
In another assay the test system is MG-63. Briefly: Anticancer activity against human MG-63 cells assessed as reduction in cell viability incubated for 48 hrs by MTT assay. The following applies: MG-63, 48 h. In kind it is functional, cell-based.
Another assay has as its system HUVEC. Briefly: Antiproliferative activity against human HUVEC cells assessed as inhibition of basic fibroblast growth factor stimulated stimulated cell proliferation incubated for 72 hrs by CCK-8 assay. In kind it is functional, cell-based.
Assay [3] in a line: Anti-angiogenic activity in human MA148 cells xenografted in athymic nude mouse assesed as tumor growth inhibition at 10 mg/kg, sc weekly once for 28 days. In kind it is functional. The following applies: MA148, 672 h, time 28 day, read-out: TGI. A general note: A xenograft is tissue or cells of one species grown in another, often human tumour cells in immunodeficient mice.
In a further assay the test system is SK-OV-3. Briefly: Anticancer activity against human SK-OV-3 cells assessed as reduction in cell viability and measured after 72 hrs by CellTiter-Glo reagent based assay. The following applies: SK-OV-3, 72 h. It counts as functional. On the technique in general: ATP-based viability assays read luminescence as a measure of living cells.
For another assay, the system named is NCI-H460. Briefly: Anticancer activity against human NCI-H460 cells assessed as reduction in cell viability incubated for 48 hrs by MTT assay. In kind it is functional, cell-based. The following applies: NCI-H460, 48 h.
Assay [4] can be described thus: Anticancer activity against human MDA-MB-231 cells assessed as reduction in cell viability incubated for 48 hrs by MTT assay. The following applies: MDA-MB-23, 48 h. It counts as functional, cell-based.
Another assay has as its system MCF7. Briefly: Anticancer activity against human MCF7 cells assessed as reduction in cell viability incubated for 48 hrs by MTT assay. It counts as functional, cell-based. The note with it: MCF7, 48 h.
A further assay concerns A549. Briefly: Anticancer activity against human A549 cells assessed as reduction in cell viability incubated for 48 hrs by MTT assay. In kind it is functional, cell-based. The note with it: A549, 48 h.
The next assay relates to MDCK. Briefly: Antimigratory activity against dog MDCK cells assessed as inhibition of cell migration preincubated for 0.5 hrs followed by wounding and measured after 24 hrs by wound closure assay. In kind it is functional, cell-based. The following applies: Canis lupus familiaris.
Assay [5] concerns the target T1, Galectin-1. Briefly: Binding affinity to Gal-1 (unknown origin) incubated for 30 mins by RP-HPLC analysis.
Assay [6] deals with T1, Galectin-1. Briefly: Binding affinity to human Gal-1 assessed as decrease in Gal-1 levels by ELISA.
In another assay the test system is PC-3. Briefly: Antiproliferative activity against human PC-3 cells assessed as reduction in cell proliferation incubated for 72 hrs by SRB assay. In kind it is functional, cell-based. The note with it: PC-3, 72 h.
The subject of the next assay is DU-145. Briefly: Antiproliferative activity against human DU-145 cells assessed as reduction in cell proliferation incubated for 72 hrs by SRB assay. In kind it is functional, cell-based. The following applies: DU-145, 72 h.
For another assay, the target named is T2, P-selectin (Homo sapiens, UniProt P16109).
T2 sequence (P16109 whole entry): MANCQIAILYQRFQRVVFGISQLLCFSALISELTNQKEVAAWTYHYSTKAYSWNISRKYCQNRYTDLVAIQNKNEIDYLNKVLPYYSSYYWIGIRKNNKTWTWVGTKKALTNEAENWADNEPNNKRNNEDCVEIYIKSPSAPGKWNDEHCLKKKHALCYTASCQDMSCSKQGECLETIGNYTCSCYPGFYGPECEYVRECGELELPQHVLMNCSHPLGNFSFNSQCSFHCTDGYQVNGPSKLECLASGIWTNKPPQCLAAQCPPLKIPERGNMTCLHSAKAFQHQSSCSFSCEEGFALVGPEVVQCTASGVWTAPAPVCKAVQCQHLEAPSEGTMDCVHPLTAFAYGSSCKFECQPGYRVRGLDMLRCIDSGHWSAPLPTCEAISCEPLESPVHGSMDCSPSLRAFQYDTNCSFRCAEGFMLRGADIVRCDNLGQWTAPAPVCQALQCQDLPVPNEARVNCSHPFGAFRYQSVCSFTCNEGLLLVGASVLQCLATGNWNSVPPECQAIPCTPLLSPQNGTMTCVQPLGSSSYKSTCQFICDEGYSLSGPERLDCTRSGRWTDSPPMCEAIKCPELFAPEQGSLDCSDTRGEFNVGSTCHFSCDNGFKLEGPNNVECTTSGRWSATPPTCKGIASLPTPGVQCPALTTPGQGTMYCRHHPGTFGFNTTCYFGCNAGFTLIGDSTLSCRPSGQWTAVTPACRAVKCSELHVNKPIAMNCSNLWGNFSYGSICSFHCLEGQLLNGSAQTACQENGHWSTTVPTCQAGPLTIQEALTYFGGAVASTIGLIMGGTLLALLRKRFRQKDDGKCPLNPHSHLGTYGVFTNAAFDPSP
Briefly: Inhibition of P-selectin (unknown origin) incubated for 30 mins by ELISA.

Chain of C-type lectin domain family 4 member K (Q9UJ71 whole entry, the tested form may be a part): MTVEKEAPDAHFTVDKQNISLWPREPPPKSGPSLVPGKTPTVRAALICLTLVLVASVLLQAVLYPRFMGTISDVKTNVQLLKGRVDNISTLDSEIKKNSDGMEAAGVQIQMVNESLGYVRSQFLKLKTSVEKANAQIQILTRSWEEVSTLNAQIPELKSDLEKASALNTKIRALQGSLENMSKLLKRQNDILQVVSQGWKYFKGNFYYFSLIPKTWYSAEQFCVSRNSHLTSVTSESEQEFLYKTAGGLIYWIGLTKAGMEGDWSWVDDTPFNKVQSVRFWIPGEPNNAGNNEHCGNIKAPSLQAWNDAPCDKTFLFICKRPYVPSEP
T1 sequence (P09382 whole entry): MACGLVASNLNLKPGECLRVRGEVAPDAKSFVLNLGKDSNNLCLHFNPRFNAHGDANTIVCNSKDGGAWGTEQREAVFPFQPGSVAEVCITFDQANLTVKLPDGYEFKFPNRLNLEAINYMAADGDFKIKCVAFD

As for `CCOC(=O)c1cc(C(F)(F)F)n[nH]1`, the 50% inhibitory concentration (IC50) in assay [1] was 580 µM.

For the compound `COc1ccc2c(c1)c(C/C=C(/O)c1cc3ccccc3oc1=O)cn2Cc1cccc(Cl)c1`, the Ka at Galectin-1 [2] is 6.6 10^5/M.

The compound `Cc1n[nH]c(C)c1Cc1ccc(O)cc1` returned an IC50 in assay [1] of 1030 µM.

In assay [1], `CCN1CCN(CC(C)c2ccc(F)cc2)CC1` (centres undefined) yielded a 50% inhibitory concentration (IC50) of 1150 µM.

Take `CC1CN(Cc2cc(=O)oc3cc(OCc4cn(Cc5ccc(Cl)cc5Cl)nn4)ccc23)CC(C)O1` (centres undefined): in the assay on MG-63, the 50% inhibitory concentration (IC50) came out at 0.8 µM.

In the case of `CCC[C@H](NC(=O)[C@H](CCC(N)=O)NC(=O)[C@@H](NC(=O)[C@@H](N)CO)C(C)C)C(=O)N[C@@H](CCCCN)C(=O)N[C@@H](CC(C)C)C(=O)NCCc1cccc2c1Cc1c(CCC(=O)N[C@H](C(=O)N[C@H](C(=O)N[C@H](C(=O)N[C@@H](CCCCN)C(=O)N[C@@H](CC(C)C)C(=O)N[C@@H](CC(N)=O)C(=O)N[C@@H](C)C(=O)O)C(C)C)[C@@H](C)CC)[C@@H](C)CC)cccc1-2` (H-SVQ[Nva]KL[X2]IIVKLNA-OH), in the assay with HUVEC, the 50% inhibitory concentration (IC50) turned out to be 10 µM.

As to H-ANIKLSVQMKLFKRHLKWKIIVKLNDGRELSLD-OH, in [3], the inhibition in vivo at 10 mg/kg came to 80%.

For the compound `CC(=O)OCCN(CCOC(C)=O)c1ccc(-c2nc3cc(C(CC(N)=O)NC(=O)C(N)Cc4ccc(Cl)c(Cl)c4)ccc3n2Cc2ccc(F)c(F)c2)cc1` (centres undefined), the half-inhibitory concentration (IC50) with SK-OV-3 was found to be 15.7 µM.

As to `Oc1cccc(-n2cc(COc3ccc(-c4nc5cc(Cl)ccc5n4Cc4ccccc4)cc3)nn2)c1`, the 50% inhibitory concentration (IC50) with NCI-H460 is 0.99 µM; in [4] it was 0.94 µM; in the assay on MCF7, 1.3 µM; in the assay on A549, 0.63 µM.

`CCOC(=O)C1CCNC(=O)C1O` (centres undefined) showed an IC50 in assay [1] of 1190 µM.

In assay [1], `CCOC(=O)c1sc(=O)[nH]c1C(F)(F)F` registered an IC50 of 1060 µM.

For `COc1c(C)c(OC)c2c(c1OCc1ccccc1)[C@H](COCc1ccccc1)N1[C@@H]3[C@H]4[C@H](C[C@H]([C@@H]1C#N)N4C)C(=O)N[C@H]23`, the half-maximal inhibitory concentration (IC50) with MDCK was determined as 32.5 µM.

Turning to `O=C(Nc1ccc(O)cc1)c1ccc(-c2nc3cc(Cl)ccc3n2Cc2ccccc2)cc1`, the Activity on Galectin-1 [5] is 85.4%. The IC50 in the assay with MCF7 came out at 7.01 µM.

For the compound `CCOC(=O)C1CCN(Cc2cc(=O)oc3cc(OCc4ccc([N+](=O)[O-])cc4)ccc23)CC1`, the figures for the half-inhibitory concentration (IC50) at Galectin-1 [6], in the assay on PC-3 and in the assay with DU-145 were 100 µM, 7.45 µM and 8.95 µM, respectively.

`CC[C@H](C)[C@H](NC(=O)[C@H](C)NC(=O)CCc1cccc2c1oc1c(CCNC(=O)[C@H](CC(C)C)NC(=O)[C@H](CCCCN)NC(=O)[C@H](CCSC)NC(=O)[C@H](CCC(N)=O)NC(=O)[C@@H](NC(=O)[C@@H](N)CO)C(C)C)cccc12)C(=O)N[C@H](C(=O)N[C@@H](CCCCN)C(=O)N[C@@H](CC(C)C)C(=O)N[C@@H](CC(N)=O)C(=O)N[C@@H](C)C(=O)O)C(C)C` (H-SVQMKL[X3]AIVKLNA-OH): the IC50 with HUVEC amounted to 5 µM.

In turn, `O=C(O)c1cccnc1Nc1cccc(C(F)(F)F)c1` [NIFLUMIC ACID] registered a concentration for half-maximal inhibition (IC50) in assay [1] of 590 µM.

With `CCCCCCCCCCCCCCCCNC(=O)/C=C/c1ccc(-c2[nH]c(-c3ccc(C4=NNC(C=O)C4)cc3)nc2-c2ccc(/C=C/C(=O)O)cc2)cc1` (centres undefined), the IC50 against P-selectin worked out at 0.3 µM.

For `COc1cccc2c1[C@H](CO)N1[C@@H](C#N)[C@H]3C[C@@H](C(=O)O)[C@H]([C@@H]1C2)N3C`, the IC50 in the assay with MDCK amounted to 140 µM.
